Legend:
[1] = molecular target: GDP-bound NRAS wild-type protein (Homo sapiens, UniProt P01111); assay: Binding to NRAS by surface plasmon resonance (SPR), Single Cycle Kinetics; settings: KD ratio NRAS/KRAS, SPR
[2] = molecular target: GDP-bound HRAS wild-type protein (Homo sapiens, UniProt P01112); assay: Binding to HRAS by surface plasmon resonance (SPR), Single Cycle Kinetics; settings: KD ratio HRAS/KRAS, SPR
Chain of GDP-bound HRAS wild-type protein (P01112 whole entry): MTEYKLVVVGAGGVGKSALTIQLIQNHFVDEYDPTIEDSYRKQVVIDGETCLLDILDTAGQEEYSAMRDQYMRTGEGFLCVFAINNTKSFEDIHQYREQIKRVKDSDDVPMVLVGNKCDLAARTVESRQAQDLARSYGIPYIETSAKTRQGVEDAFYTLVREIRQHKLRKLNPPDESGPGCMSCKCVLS

Chain of GDP-bound NRAS wild-type protein (P01111 whole entry): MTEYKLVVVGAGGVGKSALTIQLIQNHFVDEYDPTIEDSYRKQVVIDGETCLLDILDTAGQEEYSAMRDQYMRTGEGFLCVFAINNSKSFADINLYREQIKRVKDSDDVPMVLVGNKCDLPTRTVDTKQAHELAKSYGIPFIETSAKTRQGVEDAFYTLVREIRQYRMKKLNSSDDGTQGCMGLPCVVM

| Compound | NRAS/KRAS (ratio of KD value with respect to GDP-bound NRAS wild-type protein to KD value with respect to KRAS) [1] | HRAS/KRAS (ratio of KD value with respect to GDP-bound HRAS wild-type protein to KD value with respect to KRAS) [2] |
| --- | --- | --- |
| CCO[C@@H]1C[C@H]2C(=O)NC3(CCC3)C(=O)N(C)[C@@H](C3CCCC3)C(=O)N(C)[C@H](C(=O)N3CCOCC3)CC(=O)N(C)[C@@H](CC3CCCC3)C(=O)N[C@@H]([C@@H](C)CC)C(=O)N(C)CC(=O)N(C)[C@H]3CCCCN(C3=O)[C@@H](Cc3ccc(C(F)(F)F)cc3)C(=O)N(C)CC(=O)N[C@@H](CCc3cc(F)c(C(F)(F)F)c(F)c3)C(=O)N2C1 [PP0715] | C (A compound having a KD ratio of 0.1 or more and less than 3 is denoted as C) | B (a compound having 3 or more and less than 10 is denoted as B) |
| CCO[C@@H]1C[C@H]2C(=O)NC3(CCC3)C(=O)N(C)[C@@H](C3CCCC3)C(=O)N(C)[C@H](C(=O)N3CCOCC3)CC(=O)N(C)[C@@H](CC3CCCCC3)C(=O)N[C@@H]([C@@H](C)CC)C(=O)N(C)CC(=O)N(C)[C@H]3CCCCN(C3=O)[C@@H](Cc3ccc(C(F)(F)F)cc3)C(=O)N(C)CC(=O)N[C@@H](CCc3cc(F)c(C(F)(F)F)c(F)c3)C(=O)N2C1 [PP0716] | C (A compound having a KD ratio of 0.1 or more and less than 3 is denoted as C) | B (a compound having 3 or more and less than 10 is denoted as B) |
| CCO[C@@H]1C[C@H]2C(=O)NC3(CCC3)C(=O)N(C)[C@@H](C3CCCC3)C(=O)N(C)[C@H](C(=O)N3CCOCC3)CC(=O)N(C)[C@@H](Cc3cccnc3)C(=O)N[C@@H]([C@@H](C)CC)C(=O)N(C)CC(=O)N(C)[C@H]3CCCCN(C3=O)[C@@H](Cc3ccc(C(F)(F)F)cc3)C(=O)N(C)CC(=O)N[C@@H](CCc3cc(F)c(C(F)(F)F)c(F)c3)C(=O)N2C1 [PP0718] | C (A compound having a KD ratio of 0.1 or more and less than 3 is denoted as C) | B (a compound having 3 or more and less than 10 is denoted as B) |
| CCO[C@@H]1C[C@H]2C(=O)NC3(CCC3)C(=O)N(C)[C@@H](C3CCCC3)C(=O)N(C)[C@H](C(=O)N3CCOCC3)CC(=O)N(C)[C@@H](COC)C(=O)N[C@@H]([C@@H](C)CC)C(=O)N(C)CC(=O)N(C)[C@H]3CCCCN(C3=O)[C@@H](Cc3ccc(C(F)(F)F)cc3)C(=O)N(C)CC(=O)N[C@@H](CCc3cc(F)c(C(F)(F)F)c(F)c3)C(=O)N2C1 [PP0719] | C (A compound having a KD ratio of 0.1 or more and less than 3 is denoted as C) | B (a compound having 3 or more and less than 10 is denoted as B) |
| CCO[C@@H]1C[C@H]2C(=O)NC3(CCC3)C(=O)N(C)[C@@H](C3CCCC3)C(=O)N(C)[C@H](C(=O)N3CCOCC3)CC(=O)N(C)[C@@H](CCOC)C(=O)N[C@@H]([C@@H](C)CC)C(=O)N(C)CC(=O)N(C)[C@H]3CCCCN(C3=O)[C@@H](Cc3ccc(C(F)(F)F)cc3)C(=O)N(C)CC(=O)N[C@@H](CCc3cc(F)c(C(F)(F)F)c(F)c3)C(=O)N2C1 [PP0720] | C (A compound having a KD ratio of 0.1 or more and less than 3 is denoted as C) | B (a compound having 3 or more and less than 10 is denoted as B) |
| CCO[C@@H]1C[C@H]2C(=O)NC3(CCC3)C(=O)N(C)[C@@H](C3CCCC3)C(=O)N(C)[C@H](C(=O)N3CCOCC3)CC(=O)N(C)C[C@@H](C)C(=O)N[C@@H]([C@@H](C)CC)C(=O)N(C)CC(=O)N(C)[C@H]3CCCCN(C3=O)[C@@H](Cc3ccc(C(F)(F)F)cc3)C(=O)N(C)CC(=O)N[C@@H](CCc3cc(F)c(C(F)(F)F)c(F)c3)C(=O)N2C1 [PP0721] | B (a compound having 3 or more and less than 10 is denoted as B) | B (a compound having 3 or more and less than 10 is denoted as B) |

From patent US20250230193A1, “CYCLIC COMPOUND HAVING SELECTIVE KRAS INHIBITORY EFFECT ON HRAS AND NRAS” (CHUGAI SEIYAKU KABUSHIKI KAISHA, priority 2022, published 2025)
